In paper PMC8318231, “Rate-of-Kill (RoK) assays to triage large compound sets for Chagas disease drug discovery: Application to GSK Chagas Box” (PLoS Neglected Tropical Diseases, 2021):

Assays:
[1] = tested on: T. cruzi Tulahuen trypomastigotes; experiment: T. cruzi trypomastigote assay (Cell Titer-Glo viability, ATP luminescence); format: cell-based, Trypanosoma cruzi; settings: for activity in trypomastigotes assay (in words): 48 and 72 hours; for Trypomastigotes pIC50 48 hours: 48 hours incubation; for Trypomastigotes pIC50 48 hours / Trypomastigotes pIC50 72 hours: pIC50 = -log10 IC50 in molar units; for Trypomastigotes pIC50 72 hours: 72 hours incubation; for 72 pIC50 (trypomastigotes, raw data of Fig 1D): 72 hours, plotted values, censored values given without sign; for 48 pIC50 / 72 pIC50: trypomastigote assay; for 48 pIC50: 48 h; for 72 pIC50: 72 h
Outline: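 Compounds were tested in dose response or once at a final 5 μM against 5 × 10^4 trypomastigotes per well (DMEM, 2% FBS), collected on days 5–8 from LLC-MK2 infected cultures. ATP luminescence via CellTiter-Glo reports live parasites; DMSO defines 0% and cell-free wells 100% effect.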

[2] = tested on: T. cruzi intracellular amastigotes in H9c2 cells; experiment: Rate-of-Kill (RoK) high-content imaging assay, amastigotes per cell (AM/CELL) and curve descriptors; format: cell-based, Trypanosoma cruzi; parameters: key to ME_24h / ME_48h / ME_72h: % reduction in parasite burden (cidal response); t50pct_MCC50 / t50pct_Cmax: unit not given here; settings: for ME_24h: 24h; for ME_48h: 48h; for ME_72h: 72h; for t50%_Cmax / tlag_Cmax / t50pct_Cmax: at Cmax; for ME_24h (%): maximum effect at 24 h; for ME_24h (%) / ME_48h (%) / ME_72h (%): RoK assay; for ME_48h (%): maximum effect at 48 h; for ME_72h (%): maximum effect at 72 h; for ME 24h (maximum effect at 24 hours, intracellular amastigotes): maximum percentage of parasite burden reduction reached by any concentration
Experimental: For this high-content intracellular imaging assay, H9c2 cells were seeded in 225 cm^2 T- FLASK in DMEM with 10% FBS for 4 h to allow attachment. T. cruzi trypomastigotes, collected at days 5 to 8 after infection from LLC-MK2 parasite infected cultures, were allowed to swim out for 4 h at 37°C from a centrifuged pellet (1,600 x g / 10 min). Trypomastigotes were then collected and counted in a CASY Cell Counter using the 60 μm capillary. Trypomastigotes, in supplemented DMEM, were added to H9c2 cultures in a multiplicity of infection (MOI) of 8 and incubated for 18 h. Cells were washed once with PBS before incubation of the infected H9c2 monolayer with trypsin (Life-Technologies) to detach cells from the flask. Cells were counted in a CASY Cell Counter, using the 150 μm capillary, and their density set at 5 x 10^4 cells/mL in supplemented DMEM. Infected H9c2 were dispensed into 384-well plates at 50 μL per well using a Multidrop Combi dispenser. Control wells used to determine a 100% parasitic growth (full 6th column of each plate) were left untreated, whereas not infected cells were added in the control wells used as 0% parasite growth (or 100% parasite growth inhibition; full 18th column of each plate). The four plates corresponding to each RoK assay were predispensed for the same mother plate. […] Cultures were then fixed and stained with 50 μL per well of a PBS solution containing 4% formaldehyde and 2 μM DRAQ5 DNA dye (BioStatus, UK). Then plates were read in a PerkinElmer Opera Phenix using a 20x objective, 3 fields per well. DRAQ5 signal was detected using 640 nm excitation laser and a 690/50 nm emission detection filter. Automated image analysis was performed with a script developed on Acapella High Content Imaging and Analysis Software (PerkinElmer). Two outputs were provided for each sample well: (1) number of host cells nuclei to determine drug-related cytotoxicity (aka H9c2) and (2) number of amastigotes per cell as infection level measurement (aka AM/CELL). Each output is plotted as a time course for each compound at every concentration. This assay was adapted from Alonso-Padilla et al. and Peña et al..
To identify and classify the different compounds, the number of amastigotes per cell (AM/CELL) raw data obtained in rate of kill assay are normalised using the average of C1 (infected cells) at time 4 hours as 0% effect and the average of C2 (non-infected cells) for each time as 100% effect, according to the following Eq 1: %CIDALRESPONSE=100*[Avg_C14h-RawData]/[Avg_C14h-Avg_C2] (1)
• ME (Maximum Effect) is the maximum percentage of parasite burden reduction reached by any compound concentration. Compounds that decrease the initial parasite load will show a positive value of ME, whereas compounds that allow the progression of infection will render a negative ME value. […] It is calculated for the MCC50 (t50%_MCC50) and for the maximum concentration (t50%_Cmax). […] The value of this parameter is not either interpolated or extrapolated, and it refers to the first experimental time-course point at which a 50% of effect is reached or exceeded. • tlag defines the time elapsed for one particular concentration to reduce parasite burden between two consecutive points at any moment of the time course. It is calculated for the MCC50 (tlag_MCC50) and for the maximum concentration (tlag_Cmax). The value of this parameter is not either interpolated or extrapolated, and it refers to the first experimental time-course point of a positive slope in the normalised plot (i.e. %Cidal_Response). • Cmin_Tox (Minimal CytoToxic Concentration) is the lowest compound concentration that is reducing the number of host mammalian cells below 50% of initial cell density. Cytotoxic compounds may mislead a bona fide antiparasitic action.

TcCYP51 = settings: formerly reported; cited from earlier work

Compound | Trypomastigotes pIC50 48 hours [1] | Trypomastigotes pIC50 72 hours [1] | ME_24h ([2]; figure 5) | ME_48h ([2]; figure 5) | ME_72h ([2]; figure 5) | MCC50 ([2]; RoK curve descriptor) [µM] | MCCE ([2]; RoK curve descriptor) [µM] | AM/CELL NORM ([2]; Time 4, sheet figure 4 A) | AM/CELL NORM ([2]; Time 24, sheet figure 4 A) | tlag_Cmax [2] [h] | t50pct_Cmax ([2]; figure 5) | tlag_Cmax ([2]; figure 5) | t50pct_MCC50 ([2]; at MCC50, figure 5) | tlag_MCC50 ([2]; at MCC50, figure 5) | MCCE ([2]; figure 5) | ME_24h (%) [2] [%] | ME_48h (%) [2] [%] | ME_72h (%) [2] [%] | ME 24h (maximum effect at 24 hours, intracellular amastigotes) [2] [%] | CYP51 pIC50 (TcCYP51) | also measured
COc1ccc(-c2nc3ncccc3o2)cc1NC(=O)c1cccs1 [TCMDC-143137] | < 4.3 | 5.2 | 22.8714 | 76.8526 | 102.262 | 16.7 | 5.6 | -5.518 | 19.5521 | 4.0 | 48 | 4 | 48 | 4 | 5.556 | 22.9 | 76.9 | 102.3 | 22.8714 | < 4 | activity in trypomastigotes assay (in words) [1]: only active in trypomastigote assay at 72 hours; cidality in the RoK assay (in words) [2]: not signs of cidality at 24 hours; ME / cidal effect at 72 hours ([2]; 72 hours): 100%; AM/CELL NORM ([2]; Time 48, sheet figure 4 A): 76.8526; AM/CELL NORM ([2]; Time 72, sheet figure 4 A): 68.9196; t50%_Cmax [2]: 48.0 h; t50%_MCC50 ([2]; at MCC50): 48.0 h; tlag_MCC50 ([2]; at MCC50): 4.0 h; MCC50 ([2]; figure 5, in µM): 16.6667
Cc1nnnn1-c1cccc(C(=O)N2CCC[C@@]3(C)c4ncncc4CCC23)c1 (stereo partly shown) [TCMDC-143148] | < 4.3 | < 4.3 | -108.08 | -0.7839 | 73.626 | 1.9 | 0.6 | 4.786 | -133.046 | 24.0 | 72 | 24 | 72 | 24 | 0.6173 | -108.1 | -0.8 | 73.6 | -108.08 | 4.6 | 72 pIC50 (trypomastigotes, raw data of Fig 1D) [1]: < 4.3; 48 pIC50 ([1]; figure 1A): < 4.3; 72 pIC50 ([1]; figure 1A): < 4.3; 72 pIC50 ([1]; figure 1B): < 4.3; AM/CELL NORM ([2]; Time 48, sheet figure 4 A): -35.529; AM/CELL NORM ([2]; Time 72, sheet figure 4 A): 70.8755; t50%_Cmax [2]: 72.0 h; t50%_MCC50 ([2]; at MCC50): 72.0 h; tlag_MCC50 ([2]; at MCC50): 24.0 h; MCC50 ([2]; figure 5, in µM): 1.852
Cc1c(C#N)c([N+](=O)[O-])nn1Cc1cccc(Cl)c1Cl [TCMDC-143152] | 6.1 | 6.1 | 56.9761 | 166.798 | 160.217 | 1.9 | 0.6 | 5.197 | 56.9761 | 4.0 | 24 | 4 | 48 | 4 | 0.6173 | 57.0 | 166.8 | 160.2 | 56.9761 | < 4 | 72 pIC50 (trypomastigotes, raw data of Fig 1D) [1]: 6.1; 48 pIC50 ([1]; figure 1A): 6.1; 72 pIC50 ([1]; figure 1A): 6.1; 72 pIC50 ([1]; figure 1B): 6.1; AM/CELL NORM ([2]; Time 48, sheet figure 4 A): 166.798; AM/CELL NORM ([2]; Time 72, sheet figure 4 A): 160.217; t50%_Cmax [2]: 24.0 h; t50%_MCC50 ([2]; at MCC50): 48.0 h; tlag_MCC50 ([2]; at MCC50): 4.0 h; MCC50 ([2]; figure 5, in µM): 1.852
CCOc1ccc(NC(=O)C=Cc2ccc(CC)o2)cc1 [TCMDC-143160] | 5.4 | 5 | -214.627 | -667.694 | -988.393 |  | 16.7 |  |  | 72.0 | 72 | 72 | 72 | 72 | 16.6667 | -214.6 | -667.7 | -988.4 | 0.6973 | < 4 | AM/CELL NORM ([2]; Time 4, figure 4 A): 1.332; AM/CELL NORM ([2]; Time 24, figure 4 A): -214.627; AM/CELL NORM ([2]; Time 48, figure 4 A): -667.694; AM/CELL NORM ([2]; Time 72, figure 4 A): -988.393; MCC50 ([2]; figure 5): 50 µM
COc1ccc(NS(=O)(=O)c2cc(NC(=O)c3ccc([N+](=O)[O-])s3)ccc2OC)cc1 [TCMDC-143163] | 6.9 | 6.6 | 71.4836 | 99.4358 | 93.6846 | 0.2 | 0.2 | 10.6053 | 69.9764 | 4.0 | 24 | 4 | 48 | 24 | 0.2058 | 71.5 | 99.4 | 93.7 | 71.4836 | 6 | activity in trypomastigotes assay (in words) [1]: potent activity; AM/CELL NORM ([2]; Time 48, sheet figure 4 A): 96.1683; AM/CELL NORM ([2]; Time 72, sheet figure 4 A): 85.8906; t50%_Cmax [2]: 24.0 h; t50%_MCC50 ([2]; at MCC50): 48.0 h; tlag_MCC50 ([2]; at MCC50): 24.0 h; MCC50 ([2]; figure 5, in µM): 0.2058
NC(=O)c1ccccc1Nc1nc(NC2CCCCC2)nc2[nH]ccc12 [TCMDC-143314] | 5.1 | 4.4 | -235.508 | -846.189 | -1441.39 |  | 0.6 |  |  | 72.0 | 72 | 72 | 72 | 72 | 0.6173 | -235.5 | -846.2 | -1441.4 | 91.926 | < 4 | AM/CELL NORM ([2]; Time 4, figure 4 A): -0.353; AM/CELL NORM ([2]; Time 24, figure 4 A): -235.508; AM/CELL NORM ([2]; Time 48, figure 4 A): -898.709; AM/CELL NORM ([2]; Time 72, figure 4 A): -1946.1; MCC50 ([2]; figure 5): 50 µM
